# Measured values from patent US10213407B2, “Compounds and methods for inhibiting production of trimethylamine” (The Procter & Gamble Company, priority 2015, dated 2019).
# pIC50: −log10 of the molar value.
# Target: Ec YeaWX lysate (Escherichia coli (strain K12), UniProt P0ABR7)
# Assay: Inhibition of formation of TMA from carnitine in Ec YeaWX lysate (d9-carnitine to d9-TMA, LC-MS/MS)
# Assay type: biochemical
# Conditions: conversion of carnitine to TMA; Ec YeaWX lysate 2.0 mg/mL protein, 250 μM NADPH, 50 μM d9-carnitine chloride, 37° C., two hours; read-out: TMA Inhibition (IC50, mol/L)
# Source text: EXAMPLE 3 provides an exemplary assay for identifying and characterizing compounds from Formula (I), or Formula (II), that inhibit the formation of TMA from carnitine.
# Escherichia coli BL21*DE3::pET30a-Ec yeaWX #1 (Ec YeaWX) strain was generated as described below. The contiguous Escherichia coli coding sequence yeaW (equivalent to uniprot ID P0ABR7.1 (YeaW) (SEQ ID NO: 2)) and yeaX (equivalent to uniprot ID P76254.1 (YeaX) (SEQ ID NO: 3)) were PCR amplified from Escherichia coli strain K-12 substr. BW25113 genomic DNA. PCR primers (YeaW_Nde I_fwd2-SEQ ID NO: 4; YeaX_rev2-SEQ ID NO: 5) were designed to create a 5′ NdeI restriction site including the ATG start codon of yeaW and create a PstI restriction site just 3′ of the yeaX TAG stop codon.
# The amplicon was restricted and cloned into the NdeI and PstI sites of the plasmid pET30a downstream of the inducible T7 promoter. A blast search of the resulting cloned amplicon DNA sequence (SEQ ID NO: 1) corresponded to nucleotide range 1884665 to 1886810 of Escherichia coli str. K-12 substr. MG1655 (NCBI Accession #NC_000913). The construct was transformed and grown in E. coli BL21(DE3) and the recombinant yeaWX overexpressed by addition of isopropyl β-D-1-thiogalactopyranoside (IPTG).
# The bacteria were grown aerobically in 50 mL LB broth (Difco #244620; 10 g/L Tryptone, 5 g/L yeast extract, 10 g/L NaCl, 50 μg/mL kanamycin), in a 500 mL Erlenmeyer flask. The cultures were inoculated from glycerol stock of BL21*DE3::pET30a-Ec yeaWX #1 strain. Strains were cultured all day at 37° C. with 250 rpm shaking. Two 300 mL Minimal M9 Medium (6 g/L Na2HPO4, 3 g/L KH2PO4, 0.5 g/L NaCl, 1 g/L NH4Cl, 0.1 mM CaCl2, 1 mM MgSO4, 0.2% Dextrose, 1 mg/L Thiamine, 50 μg/mL kanamycin), in 1 L Erlenmeyer flasks, were inoculated with 5 mL of the LB broth day culture and cultured overnight at 37° C. with 250 rpm shaking. The overnight cultures were used to inoculate twelve 1 L cultures of Minimal M9 media in 2.8 L fluted Erlenmeyer flasks to an OD 600 nm of 0.05 (typically approximately 28 mLs), which were grown at 37° C. with 250 rpm shaking until an OD600 of approximately 0.4 was reached. Expression of YeaWX was induced with 1 mM IPTG and the induced cultures were further grown overnight at 37° C. with 250 rpm shaking. The biomass was pelleted by centrifugation at 6000×g for 12 minutes at 4° C. The cell pellet was suspended in 240 mL of ice-cold 1× Phosphate Buffered Saline (Ca^2+ and Mg^2+ free). Ninety micrograms of Lysozyme (Sigma #L6876 Lot #SLBG8654V; Sigma-Aldrich Corp., St. Louis, Mo.) was added and incubated with 320 rpm shaking for 30 minutes at 4° C. Lysis was achieved via French press with a 4° C. prechilled 1″ diameter chamber at 1000 psi (high ratio; internal PSI equivalent ˜16000). The lysate was centrifuged at 6,000×g for 12 minutes at 4° C. to pellet extra debris. Glycerol was added to the centrifuged lysate supernatant at a final concentration of 15% A protein concentration of the centrifuged lysate supernatant was determined by a BCA Protein Assay Kit (Pierce #23225), typically in the 2.5 to 4.5 mg/ml range. The centrifuged Ec YeaWX lysate supernatant was aliquoted into 20 mL volumes and stored frozen at −80° C.
# Ec YeaWX lysate was diluted to 2.0 mg/mL protein with 1× Dulbecco's phosphate buffered saline (DPBS) plus 15% glycerol. Nicotinamide adenine dinucleotide phosphate (NADPH) was added to 250 μM. […]
# Ec YeaWX lysate, sequence (P0ABR7 whole entry): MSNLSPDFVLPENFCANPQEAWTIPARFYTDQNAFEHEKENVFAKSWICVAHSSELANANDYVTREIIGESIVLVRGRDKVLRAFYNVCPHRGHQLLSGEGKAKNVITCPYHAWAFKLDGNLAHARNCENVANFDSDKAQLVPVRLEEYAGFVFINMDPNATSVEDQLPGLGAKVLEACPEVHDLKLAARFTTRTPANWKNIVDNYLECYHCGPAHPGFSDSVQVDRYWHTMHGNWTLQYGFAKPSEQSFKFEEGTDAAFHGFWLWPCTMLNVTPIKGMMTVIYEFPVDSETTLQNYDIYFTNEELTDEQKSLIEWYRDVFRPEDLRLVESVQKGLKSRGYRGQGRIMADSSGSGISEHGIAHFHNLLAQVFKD
row,Structure (SMILES),pIC50
1,"CC[N+](C)(CC)CCCN=C=S [Compound 2, 3-Isothiocyanato-N,N-diethyl-N-methylpropanaminium iodide]",3.70
2,"CCOC(=O)C(=O)C[N+](C)(C)CCN=C=S [Compound 5, N-(Ethoxypropyl-2,3-dione)-2-isothiocyanato-N,N-dimethylethan-1-aminium bromide]",2.26
3,CCOC(=O)C(=O)C[N+](C)(C)CCCN=C=S [Compound 6],3.70
4,"CC[N+](CC)(CCBr)CCCN=C=S [Compound 7, N-(2-Bromoethyl)-3-isothiocyanato-N,N-diethylpropan-1-aminium triflate]",3.77
5,"CC[N+](CC)(CC#N)CCCN=C=S [Compound 9, N-Cyanomethyl-3-isothiocyanato-N,N-diethylpropan-1-aminium bromide]",3.22
